Data from patent US20230278972A1, “SUBSTITUTED HALOALKYL SULFONANILIDE HERBICIDES” (FMC Corporation, priority 2020, published 2023).

Key:
Assay type in all cases: in vivo
[1] = tested on: pigweed (Amaranthus retroflexus); assay: Test A postemergence, pigweed; conditions: Postemergence, 0 to 100 scale (0 no effect, 100 complete control); for Plant response rating, Pigweed: 125 g ai/ha; for Pigweed plant response rating: 500 g ai/ha, visual injury vs untreated controls after approx. 10 days
Method in brief: (§1)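 Pots: loam soil/sand blend. Pre: directed soil spray at planting. Post: plants 2–10 cm, 1–2 leaf stage. Formulation: non-phytotoxic solvent + surfactant.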

kochia (Bassia scoparia) [2] = assay: Test A preemergence, kochia; conditions: Preemergence; for Plant response rating, Kochia: 0 to 100 scale (0 no effect, 100 complete control)
Method in brief: as §1

[3] = tested on: ragweed (common ragweed, Ambrosia artemisiifolia); assay: Test A preemergence, ragweed; conditions: Preemergence; for Plant response rating, Ragweed: 0 to 100 scale (0 no effect, 100 complete control)
Method in brief: as §1

[4] = tested on: Foxtail, Giant (giant foxtail, Setaria faberi); assay: Test A postemergence, Foxtail, Giant; conditions: Postemergence, 0 to 100 scale (0 no effect, 100 complete control); for Plant response rating, Foxtail, Giant: 125 g ai/ha; for Foxtail, Giant plant response rating: 500 g ai/ha, visual injury vs untreated controls after approx. 10 days
Method in brief: as §1

[5] = tested on: pigweed (Amaranthus retroflexus); assay: Test A preemergence, pigweed; conditions: for Plant response rating, Pigweed: 0 to 100 scale (0 no effect, 100 complete control)
Excerpt: Seeds of plant species selected from barnyardgrass (Echinochloa crus-galli), kochia (Bassia scoparia), ragweed (common ragweed, Ambrosia artemisiifolia), Ryegrass, Italian (Italian ryegrass, Lolium multiflorum), Foxtail, Giant (giant foxtail, Setaria faberi), and pigweed (Amaranthus retroflexus) were planted into a blend of loam soil and sand and treated preemergence with a directed soil spray using test chemicals formulated in a non-phytotoxic solvent mixture which included a surfactant. At the same time, plants selected from these weed species and also wheat (Triticum aestivum), corn (Zea mays), blackgrass (Alopecurus myosuroides), and galium (catchweed bedstraw, Galium aparine) were planted in pots containing the same blend of loam soil and sand and treated with postemergence applications of test chemicals formulated in the same manner. Plants ranged in height from 2 to 10 cm and were in the one- to two-leaf stage for the postemergence treatment. […] A dash (-) response means no test result.

[6] = tested on: wheat (Triticum aestivum); assay: Test A postemergence, wheat; conditions: Postemergence, 0 to 100 scale (0 no effect, 100 complete control); for Plant response rating, Wheat: 125 g ai/ha; for Wheat plant response rating: 500 g ai/ha, visual injury vs untreated controls after approx. 10 days
Method in brief: (§2)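 Seeds are sown in loam mixed with sand and sprayed on the soil surface right after planting for the preemergence test. Postemergence pots are sprayed once seedlings reach 2 to 10 cm at the one- to two-leaf stage. The same surfactant-containing, non-phytotoxic solvent formulation serves both.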

[7] = tested on: Ryegrass, Italian (Italian ryegrass, Lolium multiflorum); assay: Test A postemergence, Ryegrass, Italian; conditions: Postemergence, 0 to 100 scale (0 no effect, 100 complete control); for Plant response rating, Ryegrass, Italian: 125 g ai/ha; for Ryegrass, Italian plant response rating: 500 g ai/ha, visual injury vs untreated controls after approx. 10 days
Method in brief: as §1

[8] = tested on: barnyardgrass (Echinochloa crus-galli); assay: Test A preemergence, barnyardgrass; conditions: Preemergence, 0 to 100 scale (0 no effect, 100 complete control)
Method in brief: as §1

[9] = tested on: blackgrass (Alopecurus myosuroides); assay: Test A postemergence, blackgrass; conditions: Postemergence, 0 to 100 scale (0 no effect, 100 complete control); for Plant response rating, Blackgrass: 125 g ai/ha; for Blackgrass plant response rating: 500 g ai/ha, visual injury vs untreated controls after approx. 10 days
Method in brief: as §1

corn (Zea mays) = assay: Test A postemergence, corn; conditions: Postemergence, 0 to 100 scale (0 no effect, 100 complete control); for Plant response rating, Corn: 125 g ai/ha; for Corn plant response rating: 500 g ai/ha, visual injury vs untreated controls after approx. 10 days
Method in brief: as §1

[10] = tested on: Foxtail, Giant (giant foxtail, Setaria faberi); assay: Test A preemergence, Foxtail, Giant; conditions: Preemergence; for Plant response rating, Foxtail, Giant: 0 to 100 scale (0 no effect, 100 complete control)
Method in brief: as §1

kochia (Bassia scoparia) [11] = assay: Test A postemergence, kochia; conditions: Postemergence, 0 to 100 scale (0 no effect, 100 complete control); for Plant response rating, Kochia: 125 g ai/ha; for Kochia plant response rating: 500 g ai/ha, visual injury vs untreated controls after approx. 10 days
Method in brief: as §1

[12] = tested on: Ryegrass, Italian (Italian ryegrass, Lolium multiflorum); assay: Test A preemergence, Ryegrass, Italian; conditions: Preemergence; for Plant response rating, Ryegrass, Italian: 0 to 100 scale (0 no effect, 100 complete control)
Method in brief: as §1

[13] = tested on: galium (catchweed bedstraw, Galium aparine); assay: Test A postemergence, galium; conditions: Postemergence, 0 to 100 scale (0 no effect, 100 complete control); for Plant response rating, Galium: 125 g ai/ha; for Galium plant response rating: 500 g ai/ha, visual injury vs untreated controls after approx. 10 days
Method in brief: as §2

[14] = tested on: ragweed (common ragweed, Ambrosia artemisiifolia); assay: Test A postemergence, ragweed; conditions: Postemergence, 0 to 100 scale (0 no effect, 100 complete control); for Plant response rating, Ragweed: 125 g ai/ha; for Ragweed plant response rating: 500 g ai/ha, visual injury vs untreated controls after approx. 10 days
Method in brief: as §1

[15] = 125 g ai/ha, visual injury, approx. 10 days
[16] = 500 g ai/ha, visual injury on 0 to 100 scale (0 no effect, 100 complete control), approximately 10 days

Row | SMILES | Plant response rating, Pigweed [1] | Pigweed plant response rating [1] | Plant response rating, Kochia (kochia (Bassia scoparia) [2]; [15]) | Plant response rating, Ragweed [3, 15] | Plant response rating, Foxtail, Giant [4] | Foxtail, Giant plant response rating [4] | Plant response rating, Pigweed [5, 15] | Plant response rating, Wheat [6] | Wheat plant response rating [6] | Plant response rating, Ryegrass, Italian [7] | Ryegrass, Italian plant response rating [7] | Plant response rating, Barnyardgrass [8, 15] | Plant response rating, Barnyardgrass ([8]; 500 g ai/ha) | Plant response rating, Blackgrass [9] | Blackgrass plant response rating [9] | Plant response rating, Corn (corn (Zea mays)) | Corn plant response rating (corn (Zea mays)) | Plant response rating, Foxtail, Giant [10, 15] | Plant response rating, Kochia (kochia (Bassia scoparia) [11]) | Kochia plant response rating (kochia (Bassia scoparia) [11]) | also measured
1 | Cc1cc(Cl)c(N(S(=O)(=O)C(F)(F)F)S(=O)(=O)C(F)(F)F)cc1C(=O)N1CCC(Cl)CC1 [Compound 200] | 60 | 90 | 60 | 40 | 0 | 20 | 100 | 20 | 70 | 20 | 20 | 30 | 100 | 0 | 0 | 0 | 20 | 90 | 10 | 40 | Plant response rating, Kochia (kochia (Bassia scoparia) [2]; 500 g ai/ha): 90; Plant response rating, Ragweed ([3]; 500 g ai/ha): 90; Plant response rating, Pigweed ([5]; 500 g ai/ha): 100; Plant response rating, Foxtail, Giant ([10]; 500 g ai/ha): 100; Plant response rating, Ryegrass, Italian [12, 15]: 30; Plant response rating, Ryegrass, Italian ([12]; 500 g ai/ha): 90; Plant response rating, Galium [13]: 60; Galium plant response rating [13]: 90; Plant response rating, Ragweed [14]: 0; Ragweed plant response rating [14]: 30
2 | Cc1cc(Cl)c(NS(=O)(=O)C(F)(F)F)cc1C(=O)N1CCC(F)CC1 [Compound 201] | 60 | 100 | 90 | 70 | 50 | 90 | 100 | 60 | 70 | 30 | 70 | 50 | 100 | 20 | 30 | 20 | 50 | 50 | 60 | 90 | Plant response rating, Kochia (kochia (Bassia scoparia) [2]; 500 g ai/ha): 100; Plant response rating, Ragweed ([3]; 500 g ai/ha): 100; Plant response rating, Pigweed ([5]; 500 g ai/ha): 100; Plant response rating, Foxtail, Giant ([10]; 500 g ai/ha): 100; Plant response rating, Ryegrass, Italian [12, 15]: 60; Plant response rating, Ryegrass, Italian ([12]; 500 g ai/ha): 90; Plant response rating, Galium [13]: 90; Galium plant response rating [13]: 90; Plant response rating, Ragweed [14]: 80; Ragweed plant response rating [14]: 90
3 | Cc1cc(C)c(C(=O)N2CCC(F)(F)C2)cc1NS(=O)(=O)C(F)(F)F [Compound 202] | 70 | 100 | 40 | 70 | 0 | 70 | 100 | 30 | 60 | 20 | 70 | 30 | 90 | 0 | 0 | 0 | 20 | 60 | 20 | 50 | Plant response rating, Kochia (kochia (Bassia scoparia) [2]; 500 g ai/ha): 80; Plant response rating, Ragweed ([3]; 500 g ai/ha): 90; Plant response rating, Pigweed ([5]; 500 g ai/ha): 100; Plant response rating, Foxtail, Giant ([10]; 500 g ai/ha): 70; Plant response rating, Ryegrass, Italian [12, 15]: 40; Plant response rating, Ryegrass, Italian ([12]; 500 g ai/ha): 70; Plant response rating, Galium [13]: 50; Galium plant response rating [13]: 80; Plant response rating, Ragweed [14]: 80; Ragweed plant response rating [14]: 90
4 | Cc1cc(Cl)c(NS(=O)(=O)C(F)(F)F)cc1C(=O)N1CCC(Cl)CC1 [Compound 224] | 60 | 100 | 0 | 50 | 30 | 70 | 100 | 30 | 70 | 30 | 60 | 70 | 100 | 0 | 40 | 10 | 60 | 90 | 50 | 70 | Plant response rating, Kochia (kochia (Bassia scoparia) [2]; 500 g ai/ha): 90; Plant response rating, Ragweed ([3]; 500 g ai/ha): 80; Plant response rating, Pigweed ([5]; 500 g ai/ha): 100; Plant response rating, Foxtail, Giant ([10]; 500 g ai/ha): 100; Plant response rating, Ryegrass, Italian [12, 15]: 50; Plant response rating, Ryegrass, Italian ([12]; 500 g ai/ha): 100; Plant response rating, Galium [13]: 90; Galium plant response rating [13]: 90; Plant response rating, Ragweed [14]: 50; Ragweed plant response rating [14]: 90
5 | Cc1cc(C)c(C2=NOC(C)(CCl)C2)cc1NS(=O)(=O)C(F)(F)F (stereo not drawn) [Compound 226] | 30 | 80 | 40 | 30 | 20 | 60 | 80 | 0 | 60 | 30 | 60 | 90 | 100 | 20 | 50 | 0 | 70 | 90 | 10 | 70 | Kochia plant response rating (kochia (Bassia scoparia) [2]; [16]): 90; Ragweed plant response rating [3, 16]: 90; Pigweed plant response rating [5, 16]: 100; Foxtail, Giant plant response rating [10, 16]: 100; Plant response rating, Ryegrass, Italian [12, 15]: 90; Ryegrass, Italian plant response rating [12, 16]: 100; Plant response rating, Galium [13]: 60; Galium plant response rating [13]: 80; Plant response rating, Ragweed [14]: 30; Ragweed plant response rating [14]: 90
